Where two headings read alike, the source gives them in different places.
Test: Stability of Compound Ia (5 mg/ml) in aqueous solutions on storage at 56°C
Format: physicochemical
Settings: for % Remaining (8 weeks): 80640 min; for remaining at 168 h: 1 week; for remaining at 336 h: 2 weeks
Experimental: The compounds of Formula I in aqueous, isotonic (isotonicity adjusted with sodium chloride and/or dextrose) and buffered ([…], pH 5.7 and 6.5) formulations containing the equivalent of 5 mg of free base of a compound of Formula I per ml have been found unsuitable for long term shelf life. Typical isotonic and buffered formulations lost 33% and 40%, respectively, of their potency following storage for eight weeks at 56°C. […] Tables 1 and 2 give the results of stability tests on the compound of Formula Ia in water and in isotonic saline, and in citrate buffers, respectively.
Tables 3 and 4, below, provide stability data for some of the stable injectable formulations of the present invention.

[1] = 0.01m citrate buffer, pH 5.7, 5 mg/ml in 0.01M citrate buffer pH 5.7, 56°C, average of duplicate samples, read-out: % Remaining(a) (pH 5.7)
[2] = 0.01m citrate buffer, pH 6.5, 5 mg/ml in 0.01M citrate buffer pH 6.5, 56°C, average of duplicate samples, read-out: % Remaining(a) (pH 6.5)
[3] = isotonic saline, 5mg/ml in isotonic saline, 56°C, average of duplicate samples, read-out: % Remaining(a) (Isotonic Saline)
[4] = water, 5mg/ml in water, 56°C, average of duplicate samples, read-out: % Remaining(a) (Water)

% Remaining(a) (pH 5.7) (5 mg/ml in 0.01M citrate buffer pH 5.7, 56°C, Initial, average of duplicate samples): 100.0%
% Remaining(a) (pH 6.5) (5 mg/ml in 0.01M citrate buffer pH 6.5, 56°C, Initial, average of duplicate samples): 100.0%
% Remaining(a) (Isotonic Saline) (5mg/ml in isotonic saline, 56°C, Initial, average of duplicate samples): 100.0%
% Remaining(a) (Water) (5mg/ml in water, 56°C, Initial, average of duplicate samples): 100.0%
% Remaining (8 weeks) (5mg/ml, Ethanol/Water (v/v) 0/100, calculated dielectric constant 78.5, 56°C, 8 weeks): 89.4%
% Remaining (8 weeks) (5mg/ml, Ethanol/Water (v/v) 25/75, calculated dielectric constant 64.9, 56°C, 8 weeks): 97.5%
% Remaining (8 weeks) (5mg/ml, Ethanol/Water (v/v) 50/50, calculated dielectric constant 51.4, 56°C, 8 weeks): 99.1%
remaining at 168 h [1]: 94.8%
remaining at 336 h [1]: 87.8%
remaining at 672 h (0.01m citrate buffer, pH 5.7, 5 mg/ml in 0.01M citrate buffer pH 5.7, 56°C, 4 weeks, average of duplicate samples, read-out: % Remaining(a) (pH 5.7)): 77.2%
remaining at 1344 h (0.01m citrate buffer, pH 5.7, 5 mg/ml in 0.01M citrate buffer pH 5.7, 56°C, 8 weeks, average of duplicate samples, read-out: % Remaining(a) (pH 5.7)): 58.9%
remaining at 168 h [2]: 93.6%
remaining at 336 h [2]: 87.9%
remaining at 672 h (0.01m citrate buffer, pH 6.5, 5 mg/ml in 0.01M citrate buffer pH 6.5, 56°C, 4 weeks, average of duplicate samples, read-out: % Remaining(a) (pH 6.5)): 77.5%
remaining at 1344 h (0.01m citrate buffer, pH 6.5, 5 mg/ml in 0.01M citrate buffer pH 6.5, 56°C, 8 weeks, average of duplicate samples, read-out: % Remaining(a) (pH 6.5)): 60.3%
remaining at 672 h (5% (w/v) glycerol, 5mg/ml, solvent 5% (w/v) Glycerol, calculated dielectric constant 76.3, 56°C, 4 weeks, read-out: % Remaining (4 weeks)): 95.1%
remaining at 1344 h (5% (w/v) glycerol, 5mg/ml, solvent 5% (w/v) Glycerol, calculated dielectric constant 76.3, 56°C, 8 weeks, read-out: %Remaining (8 weeks)): 90.9%
remaining at 672 h (15% (w/v) glycerol, 5mg/ml, solvent 15% (w/v) Glycerol, calculated dielectric constant 71.8, 56°C, 4 weeks, read-out: % Remaining (4 weeks)): 96.5%
remaining at 1344 h (15% (w/v) glycerol, 5mg/ml, solvent 15% (w/v) Glycerol, calculated dielectric constant 71.8, 56°C, 8 weeks, read-out: %Remaining (8 weeks)): 94.2%
remaining at 672 h (25% (w/v) glycerol, 5mg/ml, solvent 25% (w/v) Glycerol, calculated dielectric constant 71.4, 56°C, 4 weeks, read-out: % Remaining (4 weeks)): 96.8%
remaining at 1344 h (25% (w/v) glycerol, 5mg/ml, solvent 25% (w/v) Glycerol, calculated dielectric constant 71.4, 56°C, 8 weeks, read-out: %Remaining (8 weeks)): 95.3%
remaining at 672 h (25% (w/v) propylene glycol, 5mg/ml, solvent 25% (w/v) Propylene Glycol, calculated dielectric constant 67.3, 56°C, 4 weeks, read-out: % Remaining (4 weeks)): 97.7%
remaining at 1344 h (25% (w/v) propylene glycol, 5mg/ml, solvent 25% (w/v) Propylene Glycol, calculated dielectric constant 67.3, 56°C, 8 weeks, read-out: %Remaining (8 weeks)): 96.8%
remaining at 672 h (ethanol/water 0/100, 5mg/ml, Ethanol/Water (v/v) 0/100, calculated dielectric constant 78.5, 56°C, 4 weeks, read-out: % Remaining (4 weeks)): 94.9%
remaining at 672 h (ethanol/water 25/75, 5mg/ml, Ethanol/Water (v/v) 25/75, calculated dielectric constant 64.9, 56°C, 4 weeks, read-out: % Remaining (4 weeks)): 98.7%
remaining at 672 h (ethanol/water 50/50, 5mg/ml, Ethanol/Water (v/v) 50/50, calculated dielectric constant 51.4, 56°C, 4 weeks, read-out: % Remaining (4 weeks)): 99.5%
remaining at 672 h (ethanol/water 75/25, 5mg/ml, Ethanol/Water (v/v) 75/25, calculated dielectric constant 37.8, 56°C, 4 weeks, read-out: % Remaining (4 weeks)): 99.6%
remaining at 168 h [3]: 96%
remaining at 336 h [3]: 91.6%
remaining at 672 h (isotonic saline, 5mg/ml in isotonic saline, 56°C, 4 weeks, average of duplicate samples, read-out: % Remaining(a) (Isotonic Saline)): 83.5%
remaining at 1344 h (isotonic saline, 5mg/ml in isotonic saline, 56°C, 8 weeks, average of duplicate samples, read-out: % Remaining(a) (Isotonic Saline)): 66.9%
remaining at 168 h [4]: 97.4%
remaining at 336 h [4]: 95.5%
remaining at 672 h (water, 5mg/ml in water, 56°C, 4 weeks, average of duplicate samples, read-out: % Remaining(a) (Water)): 90.8%
remaining at 1344 h (water, 5mg/ml in water, 56°C, 8 weeks, average of duplicate samples, read-out: % Remaining(a) (Water)): 80.5%
remaining at 672 h (water, 5mg/ml, solvent Water, calculated dielectric constant 78.5, 56°C, 4 weeks (Table 4), read-out: % Remaining (4 weeks)): 94.9%
remaining at 1344 h (water, 5mg/ml, solvent Water, calculated dielectric constant 78.5, 56°C, 8 weeks (Table 4), read-out: %Remaining (8 weeks)): 88.1%
SMILES: CCN(CC)CCNC(=O)c1cc(Cl)c(N)cc1OC(C)C(C)=O (stereo not shown) [Compound Ia, 4-amino-2-(2-butanon-3-yl)-oxy-5-chloro-N-[2-(diethylamino)ethyl]benzamide]

Reference: patent EP0241837B1, “Stable injectable antiemetic compositions” (Bristol-Myers Squibb Company, priority 1986, dated 1987)
